Results reported in US20250223607A1, “HPPD Variants and Methods of Use” (BASF Agricultural Solutions Seed US LLC, priority 2013, published 2025).

Tests used:
[1] = molecular target: T1, Arabidopsis HPPD single point mutant SEQ ID No. 35 (Arabidopsis thaliana, UniProt P93836, E252S); assay: biochemical; conditions: for pI50: E252S mutant, 2 mM HPP, 3 minutes incubation
T1 construct: made in house; host or cells: E. coli BL21 (DE3)
From the text: (§1) In this content, pI50-value means the log value of the concentration of inhibitor necessary to inhibit 50% of the enzyme activity in molar concentration.

[2] = molecular target: T2, Arabidopsis HPPD single point mutant SEQ ID No. 40 (Arabidopsis thaliana, UniProt P93836, V269A); assay: biochemical; conditions: for pI50: V269A mutant (SEQ ID No. 40), 2 mM HPP, 3 minutes incubation
T2 construct: made in house; host or cells: E. coli BL21 (DE3)
T2 sequence (P93836 other isoform, or with tags, fused parts or gaps V269A): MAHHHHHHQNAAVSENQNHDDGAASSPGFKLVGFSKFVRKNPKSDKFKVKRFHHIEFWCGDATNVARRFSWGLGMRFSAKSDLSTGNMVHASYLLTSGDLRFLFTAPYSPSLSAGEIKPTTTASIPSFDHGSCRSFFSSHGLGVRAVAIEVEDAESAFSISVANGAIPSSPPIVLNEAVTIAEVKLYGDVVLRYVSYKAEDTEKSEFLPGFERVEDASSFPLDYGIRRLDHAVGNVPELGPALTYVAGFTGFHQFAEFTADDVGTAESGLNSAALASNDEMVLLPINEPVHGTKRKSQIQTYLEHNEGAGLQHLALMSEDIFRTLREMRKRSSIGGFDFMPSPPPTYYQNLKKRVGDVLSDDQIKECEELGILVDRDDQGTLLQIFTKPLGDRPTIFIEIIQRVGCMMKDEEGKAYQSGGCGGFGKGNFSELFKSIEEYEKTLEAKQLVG
From the text: as §1

[3] = molecular target: T3, Arabidopsis HPPD single point mutant SEQ ID No. 42 (Arabidopsis thaliana, UniProt P93836, P280A); assay: biochemical; conditions: for pI50: P280A mutant (SEQ ID No. 42), 2 mM HPP, 3 minutes incubation
T3 construct: made in house; host or cells: E. coli BL21 (DE3)
T3 sequence (P93836 other isoform, or with tags, fused parts or gaps P280A): as the sequence (P93836 other isoform, or with tags, fused parts or gaps V269A) above, with A274V, P285A counted along it
From the text: as §1

[4] = molecular target: T4, Arabidopsis HPPD single point mutant SEQ ID No. 44 (Arabidopsis thaliana, UniProt P93836, L368M); assay: biochemical; conditions: for pI50: L368M mutant (SEQ ID No. 44), 2 mM HPP, 3 minutes incubation
T4 construct: made in house; host or cells: E. coli BL21 (DE3)
T4 sequence (P93836 other isoform, or with tags, fused parts or gaps L368M): as the sequence (P93836 other isoform, or with tags, fused parts or gaps V269A) above, with A274V, L373M counted along it
From the text: as §1

[5] = molecular target: T5, Arabidopsis HPPD single point mutant SEQ ID No. 46 (Arabidopsis thaliana, UniProt P93836, K421I); assay: biochemical; conditions: for pI50: K421I mutant (SEQ ID No. 46), 2 mM HPP, 3 minutes incubation
T5 construct: made in house; host or cells: E. coli BL21 (DE3)
T5 sequence (P93836 other isoform, or with tags, fused parts or gaps K421I): as the sequence (P93836 other isoform, or with tags, fused parts or gaps V269A) above, with A274V, K426I counted along it
From the text: as §1

[6] = molecular target: T6, Arabidopsis HPPD single point mutant SEQ ID No. 48 (Arabidopsis thaliana, UniProt P93836, K421Q); assay: biochemical; conditions: for pI50: K421Q mutant (SEQ ID No. 48), 2 mM HPP, 3 minutes incubation
T6 construct: made in house; host or cells: E. coli BL21 (DE3)
T6 sequence (P93836 other isoform, or with tags, fused parts or gaps K421Q): as the sequence (P93836 other isoform, or with tags, fused parts or gaps V269A) above, with A274V, K426Q counted along it
From the text: as §1

[7] = molecular target: T7, Arabidopsis HPPD single point mutant SEQ ID No. 50 (Arabidopsis thaliana, UniProt P93836, K421V); assay: biochemical; conditions: for pI50: K421V mutant (SEQ ID No. 50), 2 mM HPP, 3 minutes incubation
T7 construct: made in house; host or cells: E. coli BL21 (DE3)
T7 sequence (P93836 other isoform, or with tags, fused parts or gaps K421V): as the sequence (P93836 other isoform, or with tags, fused parts or gaps V269A) above, with A274V, K426V counted along it
From the text: as §1

[8] = molecular target: T8, HPPD enzyme “SEQ ID No. 32” (Arabidopsis thaliana, UniProt P93836); assay: HPLC assay of HPPD in vitro kinetic properties (Km, Vmax, kcat; Ki, Kon, Koff); assay type: biochemical; conditions: for kinetic parameter / sensitivity of Arabidopsis thaliana HPPD in presence of inhibitor: 2 mM HPP
T8 construct: made in house; host or cells: E. coli BL21 (DE3)
T8 sequence (P93836 with tags, fused parts or gaps): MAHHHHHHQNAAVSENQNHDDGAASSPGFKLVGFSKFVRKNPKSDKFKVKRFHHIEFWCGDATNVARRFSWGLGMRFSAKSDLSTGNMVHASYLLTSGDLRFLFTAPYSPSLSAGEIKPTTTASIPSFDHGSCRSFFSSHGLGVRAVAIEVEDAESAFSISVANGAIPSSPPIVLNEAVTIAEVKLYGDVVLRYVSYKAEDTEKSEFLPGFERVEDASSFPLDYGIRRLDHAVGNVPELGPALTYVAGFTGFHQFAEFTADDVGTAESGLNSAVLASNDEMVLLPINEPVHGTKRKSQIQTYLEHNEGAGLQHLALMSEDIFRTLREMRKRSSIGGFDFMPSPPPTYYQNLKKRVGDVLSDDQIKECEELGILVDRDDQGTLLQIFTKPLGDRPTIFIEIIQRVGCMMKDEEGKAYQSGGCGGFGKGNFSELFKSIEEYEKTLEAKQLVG
Description: Km, Vmax, and kcat values for different HPPD enzyme preparations and Ki, K1=Kon, and K−1=Koff for different HPPD inhibitors were determined using a HPLC assay for measurements of HPPD activity. […] All assays were started by the addition of HPPD enzyme to the assay mixture and stopped at a series of times between 0 and 240 s by addition of 200 μl of the reaction mixture to reaction assay tubes containing 20 μl 10% perchloric acid. Precipitated protein was pelleted by a 5 minute centrifugation at 10,000 g.
For Km and Vmax value determinations the initial rates of the HPPD reaction at different substrate concentrations were determined from plots of HGA formed versus time and fitted to the Michaelis-Menten equation for unireactant enzymes using the ID Business Solutions Ltd. (www.idbs.com) XLfit software suite.

[9] = molecular target: T9, Arabidopsis thaliana wild type HPPD “SEQ ID No. 32” (Arabidopsis thaliana, UniProt P93836); assay: pI50 determination from dose-response plots of HPPD activity (standard spectrophotometric assay of WO 2009/144079); assay type: biochemical
T9 construct: made in house; host or cells: E. coli BL21 (DE3)
T9 sequence (P93836 with tags, fused parts or gaps): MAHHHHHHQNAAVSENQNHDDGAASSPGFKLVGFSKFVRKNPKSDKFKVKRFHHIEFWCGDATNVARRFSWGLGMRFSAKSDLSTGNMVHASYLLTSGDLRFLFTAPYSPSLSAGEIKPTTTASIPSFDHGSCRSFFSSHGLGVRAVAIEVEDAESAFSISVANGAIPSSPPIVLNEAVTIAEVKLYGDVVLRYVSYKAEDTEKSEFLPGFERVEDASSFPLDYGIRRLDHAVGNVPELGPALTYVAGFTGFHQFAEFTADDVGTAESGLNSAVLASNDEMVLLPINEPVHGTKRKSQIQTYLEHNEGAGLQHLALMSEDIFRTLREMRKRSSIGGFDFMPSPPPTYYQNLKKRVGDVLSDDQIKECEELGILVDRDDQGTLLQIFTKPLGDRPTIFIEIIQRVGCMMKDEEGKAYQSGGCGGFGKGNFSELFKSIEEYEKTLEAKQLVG
From the text: as §1

HPPD activity = assay: Colorimetric screening test for active HPPD enzymes (production of brown color); assay type: cell-based, Escherichia coli; conditions: E. coli with pSE420-HPPDx, 5 mM L-Tyrosine, 16 hours at 37° C.
Description: (§2) A YT-broth-type culture medium with 1% agarose, 5 mM L-Tyrosine and 42 mM Succinate, which contains the selection agent for the vector pSE420 (Invitrogen, Karlsruhe, Germany) is poured into deep well plates. E. coli culture in the exponentional growth phase which contains the vector pSE420-HPPDx (HPPDx means any gene coding for a putative HPPD enzyme/protein) is applied to each well.
as §2, with “pSE420” for “pSE420 (Invitrogen, Karlsruhe, Germany)”, “(any” for “(HPPDx means any”
It can be concluded that the two HPPD mutants are not able to convert HPP into homogentisate. […] One can conclude that the amino acid positions 267 and 282 (referring to position in SEQ ID No. 2) are essential for HPPD activity.

[10] = substrate HPP varied 10-400 μM, HPPD SEQ ID No. 32, HPLC assay
[11] = SEQ ID No. 32 (wild type), 2 mM HPP, 3 minutes incubation

T1 sequence (P93836 whole entry E252S): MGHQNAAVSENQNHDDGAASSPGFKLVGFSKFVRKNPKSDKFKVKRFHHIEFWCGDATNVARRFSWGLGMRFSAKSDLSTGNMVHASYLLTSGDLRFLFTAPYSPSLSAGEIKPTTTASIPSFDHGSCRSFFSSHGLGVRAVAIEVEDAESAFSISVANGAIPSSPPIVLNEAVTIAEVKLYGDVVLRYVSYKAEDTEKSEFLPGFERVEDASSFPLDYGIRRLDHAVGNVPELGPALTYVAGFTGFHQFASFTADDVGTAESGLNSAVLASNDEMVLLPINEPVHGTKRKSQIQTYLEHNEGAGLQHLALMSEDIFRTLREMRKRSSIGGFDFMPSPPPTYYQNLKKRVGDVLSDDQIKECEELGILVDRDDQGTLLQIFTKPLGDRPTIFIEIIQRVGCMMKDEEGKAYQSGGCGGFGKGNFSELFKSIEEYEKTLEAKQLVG

Molecule: Cc1ccc(C(=O)COc2c(C(=O)c3ccc(Cl)c(C)c3Cl)c(C)nn2C)cc1 [Benzofenap]
- IC50 [1]: 6.31 µM
- IC50 [2]: 6.31 µM
- IC50 [3]: 6.31 µM
- IC50 [4]: < 2.51 µM
- IC50 [5]: 7.94 µM
- IC50 [6]: < 2.51 µM
- IC50 [7]: 6.31 µM

Molecule: COCCOCc1nc(C(F)(F)F)ccc1C(=O)C1=C(O)C2CCC(C2)C1=O (stereo not drawn) [Bicyclopyrone, 4-hydroxy-3-[[2-[(2-methoxyethoxy)methyl]-6-(trifluoromethyl)-3-pyridinyl]carbonyl]bicyclo[3.2.1]oct-3-en-2-one]
- IC50 [1]: 50.1 µM
- IC50 [2]: 50.1 µM
- IC50 [3]: 50.1 µM
- IC50 [4]: 31.6 µM
- IC50 [5]: 63.1 µM
- IC50 [6]: 20 µM
- IC50 [7]: 63.1 µM

Molecule: CS(=O)(=O)c1cc(C(F)(F)F)ccc1C(=O)C(C#N)C(=O)C1CC1 (stereo not drawn) [Diketonitrile, 2-cyano-3-cyclopropyl-1-(2-methylsulphonyl-4-trifluoromethylphenyl)-propane-1,3-dione]
- kinetic parameter / sensitivity of Arabidopsis thaliana HPPD in presence of inhibitor [8]: sensitive in the similar range as the carrot HPPD

Molecule: O=C(O)C(=O)Cc1ccc(O)cc1 [HPP]
- Km [8, 10]: 6.3 µM
- Vmax [8, 10]: 1.2 µM

Molecule: CS(=O)(=O)c1ccc(C(=O)C2C(=O)CCCC2=O)c([N+](=O)[O-])c1 [Mesotrione, 2-[4-(methylsulfonyl)-2-nitrobenzoyl]-1,3-cyclohexanedione]
- IC50 [6]: < 2.51 µM

Molecule: Cc1nn(C)c(O)c1C(=O)c1ccc(C(F)(F)F)cc1S(C)(=O)=O [Pyrasulfotole]
- pI50 ([9]; 2 mM fixed HPP concentration, 3 minutes fixed incubation time, inhibitor 2.5 × 10^−6 to 2.5 × 10^−4 M): 5.4
- pI50 [9, 11]: 5.4
- pI50 [1]: 4.3
- pI50 [2]: 4.4
- pI50 [3]: 4.4
- pI50 [4]: 5.0
- pI50 [5]: 4.3
- pI50 [6]: 4.8
- pI50 [7]: 4.4

Molecule: Cc1ccc(S(=O)(=O)Oc2c(C(=O)c3ccc(Cl)cc3Cl)c(C)nn2C)cc1 [Pyrazolat]
- pI50 [9, 11]: 5.4
- pI50 [1]: 4.7
- pI50 [2]: 4.4
- pI50 [3]: 4.7
- pI50 [4]: 4.9
- pI50 [5]: 4.5
- pI50 [6]: 5.0
- pI50 [7]: 4.5

Molecule: CS(=O)(=O)c1ccc(C(=O)C2C(=O)CCCC2=O)c(Cl)c1 [Sulcotrione, 2-[2-chloro-4-(methylsulfonyl)benzoyl]-1,3-cyclohexanedione]
- IC50 [1]: 7.94 µM
- IC50 [2]: 10 µM
- IC50 [3]: 10 µM
- IC50 [4]: 6.31 µM
- IC50 [5]: 10 µM
- IC50 [6]: < 2.51 µM
- IC50 [7]: 7.94 µM

Molecule: CS(=O)(=O)c1ccc(C(=O)C2C(=O)CCCC2=O)c(Cl)c1COCC(F)(F)F [Tembotrione, 2-[2-chloro-4-(methylsulfonyl)-3-[(2,2,2,-tri-fluoroethoxy)methyl]benzoyl]-1,3-cyclo-hexanedione]
- kinetic parameter / sensitivity of Arabidopsis thaliana HPPD in presence of inhibitor [8]: comparable range
- IC50 [2]: < 2.51 µM
- IC50 [3]: < 2.51 µM
- IC50 [4]: < 2.51 µM
- IC50 [6]: < 2.51 µM
- IC50 [7]: < 2.51 µM

B1: S267A: point mutant S267A of A. thaliana HPPD with N-terminal alanine and 6 histidines (protein)
chain: MAHHHHHHQNAAVSENQNHDDGAASSPGFKLVGFSKFVRKNPKSDKFKVKRFHHIEFWCGDATNVARRFSWGLGMRFSAKSDLSTGNMVHASYLLTSGDLRFLFTAPYSPSLSAGEIKPTTTASIPSFDHGSCRSFFSSHGLGVRAVAIEVEDAESAFSISVANGAIPSSPPIVLNEAVTIAEVKLYGDVVLRYVSYKAEDTEKSEFLPGFERVEDASSFPLDYGIRRLDHAVGNVPELGPALTYVAGFTGFHQFAEFTADDVGTAESGLNAAVLASNDEMVLLPINEPVHGTKRKSQIQTYLEHNEGAGLQHLALMSEDIFRTLREMRKRSSIGGFDFMPSPPPTYYQNLKKRVGDVLSDDQIKECEELGILVDRDDQGTLLQIFTKPLGDRPTIFIEIIQRVGCMMKDEEGKAYQSGGCGGFGKGNFSELFKSIEEYEKTLEAKQLVG
modifications: N-terminal alanine and His6 tag; encoded by SEQ ID No. 33; SITE 2 MISC_FEATURE - Ala; MISC_FEATURE - His Tag made of 6 His
notes: point mutant S267A of A. thaliana HPPD with N-terminal alanine and 6 histidines
- HPPD activity (production of brown color) (HPPD activity): inactive

B2: N282A: point mutant N282A of A. thaliana HPPD with N-terminal alanine and 6 histidines (protein)
chain: MAHHHHHHQNAAVSENQNHDDGAASSPGFKLVGFSKFVRKNPKSDKFKVKRFHHIEFWCGDATNVARRFSWGLGMRFSAKSDLSTGNMVHASYLLTSGDLRFLFTAPYSPSLSAGEIKPTTTASIPSFDHGSCRSFFSSHGLGVRAVAIEVEDAESAFSISVANGAIPSSPPIVLNEAVTIAEVKLYGDVVLRYVSYKAEDTEKSEFLPGFERVEDASSFPLDYGIRRLDHAVGNVPELGPALTYVAGFTGFHQFAEFTADDVGTAESGLNSAVLASNDEMVLLPIAEPVHGTKRKSQIQTYLEHNEGAGLQHLALMSEDIFRTLREMRKRSSIGGFDFMPSPPPTYYQNLKKRVGDVLSDDQIKECEELGILVDRDDQGTLLQIFTKPLGDRPTIFIEIIQRVGCMMKDEEGKAYQSGGCGGFGKGNFSELFKSIEEYEKTLEAKQLVG
modifications: N-terminal alanine and His6 tag; encoded by SEQ ID No. 35; SITE 2 MISC_FEATURE - Ala; MISC_FEATURE - His Tag made of 6 His
notes: point mutant N282A of A. thaliana HPPD with N-terminal alanine and 6 histidines
- HPPD activity (production of brown color) (HPPD activity): inactive

B3: wild type HPPD: Arabidopsis thaliana wild type HPPD polypeptide with N-terminal alanine and 6 histidine amino acids (protein)
chain: MAHHHHHHQNAAVSENQNHDDGAASSPGFKLVGFSKFVRKNPKSDKFKVKRFHHIEFWCGDATNVARRFSWGLGMRFSAKSDLSTGNMVHASYLLTSGDLRFLFTAPYSPSLSAGEIKPTTTASIPSFDHGSCRSFFSSHGLGVRAVAIEVEDAESAFSISVANGAIPSSPPIVLNEAVTIAEVKLYGDVVLRYVSYKAEDTEKSEFLPGFERVEDASSFPLDYGIRRLDHAVGNVPELGPALTYVAGFTGFHQFAEFTADDVGTAESGLNSAVLASNDEMVLLPINEPVHGTKRKSQIQTYLEHNEGAGLQHLALMSEDIFRTLREMRKRSSIGGFDFMPSPPPTYYQNLKKRVGDVLSDDQIKECEELGILVDRDDQGTLLQIFTKPLGDRPTIFIEIIQRVGCMMKDEEGKAYQSGGCGGFGKGNFSELFKSIEEYEKTLEAKQLVG
modifications: misc_feature 1..1353 Nucleic acid sequence encoding Arabidopsis HPPD plus containingat the 5' end a nucleic acid encoding an Ala and 6 His aminoacids; misc_feature 4..6 sequence coding for an Ala; misc_feature 7..24 sequence coding for an His Tag containing 6 His
- HPPD activity (production of brown color) (HPPD activity): strong brown color
